Laboratory results published in ChEMBL document CHEMBL3044952, “Synthesis and insect antifeedant activity of 2-substituted 2,3-dihydrofuran-3-ols and butenolides (Part II)” (1999).

What was measured:
Assay type in all cases: functional
Pieris brassicae = experiment: Antifeedant activity against fifth-instar larval stage of Pieris brassicae fed on compound-treated cabbage leaf disks at 5 mM by two choice assay
Spodoptera frugiperda = experiment: Antifeedant activity against Spodoptera frugiperda (fall armyworm) larvae fed on artificial diet containing compound at 100 ppm by two choice assay
Spodoptera exempta = experiment: Antifeedant activity against Spodoptera exempta larvae fed on artificial diet containing compound at 100 ppm by two choice assay

Row | SMILES | AFI (Pieris brassicae) | AFI (Spodoptera frugiperda) | AFI (Spodoptera exempta)
1 | CC1(C)OC(O)CC1(O)CCc1ccccc1 (configuration not stated) | 5% | – | –
2 | O=C1CC(CCC2CCCCC2)CO1 (configuration not stated) | -9.2% | – | –
3 | CC1(C)OC(=O)CC1(O)CCC1CCCCC1 (configuration not stated) | 15% | – | –
4 | CC1(C)OC(=O)CC1(O)CCc1ccccc1 (configuration not stated) | 36% | – | –
5 | O=C1C=C(CCC2CCCCC2)CO1 | 35% | – | –
6 | CC1(C)OC(=O)C=C1CCC1CCCCC1 | 26% | – | –
7 | CC(=O)OC[C@@]12[C@@H](OC(C)=O)C[C@@H](C)C(C)(C)[C@H]1CCC[C@]21CO1 | – | 15% | 20%
8 | COC1CC(O)(CCc2ccccc2)C(C)(C)O1 (configuration not stated) | 23% | – | –
9 | CC(=O)OC[C@@]12[C@@H](OC(C)=O)C[C@@H](C)[C@](C)(C[C@H](O)c3ccoc3)[C@H]1CCC[C@]21CO1 [6,19-DIACETYLTEUMASSILIN] | – | 94% | 38%
10 | CCCCCCC1(O)CC(=O)OC1(C)C (configuration not stated) | 11% | – | –
11 | CCCCCCC1=CC(=O)OC1(C)C | 9% | – | –
12 | O=C1CC(O)(CCC2CCCCC2)CO1 (configuration not stated) | -4% | – | –
13 | C[C@@H]1CC(O[Si](C)(C)C(C)(C)C)CC[C@@]1(C)CCC1=CC(=O)OC1 (some centres not stated) | – | 12% | 34%
14 | CC(=O)OC[C@@]12[C@@H](OC(C)=O)C[C@@H](C)[C@](C)(CCC3=CC(=O)OC3)[C@H]1CCC[C@]21CO1 [AJUGARIN I] | – | 47% | 73%
15 | CC(=O)OC[C@@]12[C@@H](OC(C)=O)C[C@@H](C)[C@](C)([C@@H]3C[C@H]4C=CO[C@H]4O3)[C@H]1CCC[C@]21CO1 [CLERODIN] | – | 78% | 76%
16 | CC1(C)OC(=O)C=C1CCc1ccccc1 | 33% | – | –
17 | CC1(C)OCCC1(O)CCc1ccccc1 (configuration not stated) | 28% | – | –
